Measurements published in patent publication US9856270B2, “Dolutegravir salts” (Ratiopharm GmbH, priority 2013, dated 2018).
Where a name gives a salt, the structure may show the parent alone.

Legend:
Type in all cases: physicochemical
[1] = Storage stability of solid state forms (polymorphic conversion, XRPD)
[2] = Determination of the dissolution, 2nd experiment (approx. 210 mg in 3 ml solvent, 37° C., approx. 250 rpm, HPLC/UV)
Method: (§1) In the following examples, anhydrous Dolutegravir Na as disclosed in WO2010068253 is employed.
(§2) Approx. 210 mg test substance was weighed into a glass vial, followed by addition of 3 ml solvent. A stirring bar was added, the vial was fixed in a water bath at 37° C. and the suspension was stirred with approx. 250 rpm. After 5, 15 and 60 min, samples were withdrawn, filtered through a 0.2 μm disposable filter, 50 μl of the clear filtrate were diluted with 950 μl DMSO and 2 μl thereof were analyzed by HPLC/UV.
(§3) HPLC/UV-Method for Quantification of Dolutegravir • Instrument: Agilent 1200 (G3324) • Method: DOLUTEGRAVIR-SOL-G3324.M • Column: YMC Triart C18, 100*3.0 mm, 3.0μ • Flow: 0.6 ml/min. • Temperature: 40.0° C. • Eluent • A: acetonitrile • B: 0.2% formic acid+0.1% Heptafluorobutyric acid (HFBA)
(§4) A calibration curve was established by linear regression analysis of concentration/peak area data pairs obtained by twofold analysis of a set of calibration solutions containing dolutegravir at concentrations between 10 μg/ml and 1,000 μg/ml. In case that the peak area of dolutegravir in an analyzed sample exceeded the upper limit of the calibration range, the sample was diluted and re-analyzed.

[3] = Determination of the dissolution, 1st experiment (approx. 350 mg in 5 ml solvent, 37° C., approx. 500 rpm, HPLC/UV); conditions: for concentration: 37° C.
Method: as §1
as §2, with “Approx. 350” for “Approx. 210”, “of 5” for “of 3”, “approx. 500” for “approx. 250”, “After 1 h” for “After 5, 15”, “and 24 h,” for “and 60 min,”
as §3, §4

[4] = Dissolution profile of tablet formulations (900 ml 0.1 N HCl, paddle, 100 rpm, 37° C.); conditions: tablets, FIG. 24
Method: The dissolution profile of the above potassium salt formulation in 900 ml of 0.1 N HCl, paddle (no sinker) at 100 rpm, 37° C. was tested. An aqueous solution comprising Pharmacoat 603 was prepared. The active, Granulac 200, SDS, Avicel PH 101 and Ac-Di-Sol were granulated with the before prepared solution. The obtained granules were sieved through 1650 μm mesh size and subsequently dried at 40° C. After sieving the dried granules through 630 μm mesh size, Prosolv and Ac-Di-Sol were added. The mixture was blended for 10 minutes in a Turbula […] tumble mixer. After addition of Magnesium stearate, blending was continued for 3 minutes. Finally, the blend was compressed into tablets on an eccentric press Ek0 with a 9 mm tablet punch. The dissolution profile of the above sodium salt formulation in 900 ml of 0.1 N HCl, paddle (no sinker) at 100 rpm, 37° C. was tested.

[5] = solvent 50 mM KH2PO4, pH 6.8, 5 min, potassium salt
[6] = solvent 50 mM KH2PO4, pH 6.8, 15 min, potassium salt
[7] = solvent 50 mM KH2PO4, pH 6.8, 60 min, potassium salt
[8] = solvent 0.1 N HCl, 5 min, potassium salt
[9] = solvent 0.1 N HCl, 15 min, potassium salt
[10] = solvent 0.1 N HCl, 60 min, potassium salt
[11] = solvent demineralized water, 5 min, potassium salt
[12] = solvent demineralized water, 15 min, potassium salt
[13] = solvent demineralized water, 60 min, potassium salt

For `C[C@@H]1CCO[C@H]2Cn3cc(C(=O)NCc4ccc(F)cc4F)c(=O)c(O)c3C(=O)N12` [Dolutegravir potassium form IV, Dolutegravir potassium salt], which “stable upon storage (time)” value ([1]; 45° C./75% relative humidity) is on record?
The value was “at least 8 weeks”.

What does the source list for `C[C@@H]1CCO[C@H]2Cn3cc(C(=O)NCc4ccc(F)cc4F)c(=O)c(O)c3C(=O)N12` [Dolutegravir-K (Form VII), Dolutegravir potassium salt]?
stable under storage conditions (time) ([1]; 25° C. and 60% RH, 30° C. and 65% RH and 40° C. and 75% RH): at least 8 weeks; concentration [2, 5]: 22000 µg/mL; concentration [2, 6]: 23900 µg/mL; concentration [2, 7]: 23300 µg/mL; concentration [2, 8]: 80 µg/mL; concentration [2, 9]: 23780 µg/mL; concentration [2, 10]: 25930 µg/mL; concentration [2, 11]: 39500 µg/mL; concentration [2, 12]: 44000 µg/mL; concentration [2, 13]: 44100 µg/mL

For `C[C@@H]1CCO[C@H]2Cn3cc(C(=O)NCc4ccc(F)cc4F)c(=O)c(O)c3C(=O)N12` [Dolutegravir-Na, reference compound], which concentration ([3]; solvent 20 mM Sodium acetate (NaAc) pH 4.5, 1 h) is on record?
The concentration was 595 µg/mL.

And the concentration ([3]; solvent 20 mM Sodium acetate (NaAc) pH 4.5, 24 h)?
The concentration was 634 µg/mL.

And the concentration ([3]; solvent 50 mM KH2PO4 pH 6.8, 1 h)?
The concentration was 894 µg/mL.

What about the concentration ([3]; solvent 50 mM KH2PO4 pH 6.8, 24 h) of the same molecule?
The concentration was 918 µg/mL.

And the concentration ([3]; solvent 0.1M HCl pH1.2, 1 h)?
The concentration was 84 µg/mL.

What about the concentration ([3]; solvent 0.1M HCl pH1.2, 24 h) of the same molecule?
Its concentration is 412 µg/mL.

What about the concentration ([2]; solvent 50 mM KH2PO4, pH 6.8, 5 min) of the same molecule?
The concentration was 270 µg/mL.

What about the concentration ([2]; solvent 50 mM KH2PO4, pH 6.8, 15 min) of the same molecule?
The concentration was 1190 µg/mL.

What about the concentration ([2]; solvent 50 mM KH2PO4, pH 6.8, 60 min) of the same molecule?
The concentration was 1240 µg/mL.

And the concentration ([2]; solvent 0.1 N HCl, 5 min, listed as Dolutegravir-Na (anhydrous))?
The concentration was 330 µg/mL.

And the concentration ([2]; solvent 0.1 N HCl, 15 min, listed as Dolutegravir-Na (anhydrous))?
Its concentration is 420 µg/mL.

And the concentration ([2]; solvent 0.1 N HCl, 60 min, listed as Dolutegravir-Na (anhydrous))?
Its concentration is 400 µg/mL.

And the concentration ([2]; solvent demineralized water, 5 min)?
The concentration was 3300 µg/mL.

And the concentration ([2]; solvent demineralized water, 15 min)?
Its concentration is 3430 µg/mL.

What about the concentration ([2]; solvent demineralized water, 60 min) of the same molecule?
Its concentration is 3500 µg/mL.

Which concentration ([3]; solvent 20 mM Sodium acetate (NaAc) pH 4.5, 1 h, potassium salt) does the source give for `C[C@@H]1CCO[C@H]2Cn3cc(C(=O)NCc4ccc(F)cc4F)c(=O)c(O)c3C(=O)N12` [Dolutegravir-K (Form VI), Dolutegravir potassium salt] here?
Its concentration is 21770 µg/mL.

And the concentration ([3]; solvent 20 mM Sodium acetate (NaAc) pH 4.5, 24 h, potassium salt)?
The concentration was 16930 µg/mL.

What about the concentration ([3]; solvent 50 mM KH2PO4 pH 6.8, 1 h, potassium salt) of the same molecule?
Its concentration is 32580 µg/mL.

And the concentration ([3]; solvent 50 mM KH2PO4 pH 6.8, 24 h, potassium salt)?
The concentration was 33440 µg/mL.

And the concentration ([3]; solvent 0.1M HCl pH1.2, 1 h, potassium salt)?
The concentration was 20350 µg/mL.

What about the concentration ([3]; solvent 0.1M HCl pH1.2, 24 h, potassium salt) of the same molecule?
Its concentration is 20270 µg/mL.

With `C[C@@H]1CCO[C@H]2Cn3cc(C(=O)NCc4ccc(F)cc4F)c(=O)c(O)c3C(=O)N12` [Dolutegravir-K (amorphous), Dolutegravir potassium salt] as the molecule, how does the “stable under storage condition (time)” value ([1]; 40° C./75% RH) read?
Its value is “at least 12 weeks”.

And the concentration [2, 5]?
The concentration was 39100 µg/mL.

What about the concentration [2, 6] of the same molecule?
The concentration was 40900 µg/mL.

And the concentration [2, 7]?
Its concentration is 60100 µg/mL.

And the concentration [2, 8]?
The concentration was 300 µg/mL.

What about the concentration [2, 9] of the same molecule?
Its concentration is 21260 µg/mL.

And the concentration [2, 10]?
The concentration was 15400 µg/mL.

What about the concentration [2, 11] of the same molecule?
The concentration was 55600 µg/mL.

And the concentration [2, 12]?
Its concentration is 55100 µg/mL.

And the concentration [2, 13]?
The concentration was 62300 µg/mL.

For `C[C@@H]1CCO[C@H]2Cn3cc(C(=O)NCc4ccc(F)cc4F)c(=O)c(O)c3C(=O)N12` [Dolutegravir potassium salt], which “dissolution compared to the sodium salt” value ([3]; under certain conditions as depicted in Example 9) is on record?
The value was “improved dissolution”.

What about the “dissolution rate of a pharmaceutical composition compared to the sodium salt” value [4] of the same molecule?
The value was “faster and/or higher dissolution rate”.
